From US12448395B2 (BRISTOL-MYERS SQUIBB COMPANY, priority 2019, dated 2025)

Target: T1, human TLR9 (Homo sapiens, UniProt Q9NR96)
T1 sequence (Q9NR96 26-1032): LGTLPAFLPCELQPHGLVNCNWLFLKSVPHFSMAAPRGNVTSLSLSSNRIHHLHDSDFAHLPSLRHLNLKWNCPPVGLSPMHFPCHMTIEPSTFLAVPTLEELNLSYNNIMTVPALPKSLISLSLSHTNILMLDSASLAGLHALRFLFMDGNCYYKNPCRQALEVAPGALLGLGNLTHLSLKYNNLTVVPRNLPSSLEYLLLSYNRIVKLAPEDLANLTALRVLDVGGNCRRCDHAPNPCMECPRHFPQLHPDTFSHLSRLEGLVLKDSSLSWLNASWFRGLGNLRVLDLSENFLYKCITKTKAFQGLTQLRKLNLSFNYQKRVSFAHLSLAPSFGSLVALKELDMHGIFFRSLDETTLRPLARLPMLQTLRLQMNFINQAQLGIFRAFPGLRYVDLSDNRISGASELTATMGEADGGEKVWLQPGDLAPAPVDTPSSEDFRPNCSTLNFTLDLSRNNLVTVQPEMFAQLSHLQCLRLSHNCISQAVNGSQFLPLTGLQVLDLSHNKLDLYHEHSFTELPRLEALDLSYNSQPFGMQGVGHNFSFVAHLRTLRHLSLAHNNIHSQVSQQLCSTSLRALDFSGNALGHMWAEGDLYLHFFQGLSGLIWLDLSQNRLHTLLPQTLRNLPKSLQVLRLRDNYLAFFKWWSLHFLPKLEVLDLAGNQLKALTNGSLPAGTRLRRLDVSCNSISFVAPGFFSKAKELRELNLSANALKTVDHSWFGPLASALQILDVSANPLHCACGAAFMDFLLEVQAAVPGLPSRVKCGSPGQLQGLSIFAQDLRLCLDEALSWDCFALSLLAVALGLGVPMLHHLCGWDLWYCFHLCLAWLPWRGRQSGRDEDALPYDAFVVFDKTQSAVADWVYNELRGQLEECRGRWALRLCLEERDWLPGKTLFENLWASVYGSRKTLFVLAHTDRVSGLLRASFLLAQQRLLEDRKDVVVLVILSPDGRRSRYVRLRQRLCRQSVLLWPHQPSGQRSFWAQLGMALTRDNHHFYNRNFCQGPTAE
Assay: TLR9 inhibition reporter assay (HEK-Blue SEAP, ODN2006 stimulation)
Assay type: cell-based
Settings: HEK-Blue cells overexpressing human TLR9, ODN2006 5 nM
Experimental: TLR7/8/9 Inhibition Reporter Assays
HEK-Blue™-cells (Invivogen) overexpressing human TLR7, TLR8 or TLR9 receptors were used for screening inhibitors of these receptors using an inducible SEAP (secreted embryonic alkaline phosphatase) reporter gene under the control of the IFN-β minimal promoter fused to five NF-κB and AP-1-binding sites. Briefly, cells are seeded into Greiner 384 well plates (15000 cells per well for TLR7, 20,000 for TLR8 and 25,000 for TLR9) and then treated with test compounds in DMSO to yield a final dose response concentration range of 0.05 nM-50 μM. After a 30 minute compound pre-treatment at room temperature, the cells are then stimulated with a TLR7 ligand (gardiquimod at a final concentration of 7.5 μM), TLR8 ligand (R848 at a final concentration of 15.9 μM) or TLR9 ligand (ODN2006 at a final concentration of 5 nM) to activate NF-κB and AP-1 which induce the production of SEAP. After a 22 hour incubation at 37° C., 5% CO2, SEAP levels are determined with the addition of HEK-Blue™ Detection reagent (Invivogen), a cell culture medium that allows for detection of SEAP, according to manufacturer's specifications. The percent inhibition is determined as the % reduction in the HEK-Blue signal present in wells treated with agonist plus DMSO alone compared to wells treated with a known inhibitor.

IC50	Compound
> 50 µM	Cc1c(-c2[nH]c3sc(N4CCN(CC(=O)N(C)C)C[C@@H]4C)nc3c2C(C)C)cn2ncnc2c1C [Example 343, (S)-2-(4-(5-(7,8-dimethyl-[1,2,4]triazolo[1,5-a]pyridin-6-yl)-6-isopropyl-4H-pyrrolo[3,2-d]thiazol-2-yl)-3-methylpiperazin-1-yl)-N,N-dimethylacetamide]
> 50 µM	Cc1c(-c2[nH]c3sc(N4CCN(C5COC5)C[C@@H]4C)nc3c2C(C)C)cn2ncnc2c1C [Example 348, (S)-5-(7,8-dimethyl-[1,2,4]triazolo[1,5-a]pyridin-6-yl)-6-isopropyl-2-(2-methyl-4-(oxetan-3-yl)piperazin-1-yl)-4H-pyrrolo[3,2-d]thiazole]
> 50 µM	Cc1cc(-c2[nH]c3sc(C(=O)N4CCCC4)nc3c2C(C)C)cn2ncnc12 [Example 393, (6-isopropyl-5-(8-methyl-[1,2,4]triazolo[1,5-a]pyridin-6-yl)-4H-pyrrolo[3,2-d]thiazol-2-yl)(pyrrolidin-1-yl) methanone]
> 50 µM	Cc1c(-c2[nH]c3sc(CN4CC5(COC5)C4)nc3c2C(C)C)cn2ncnc2c1C [Example 408, 6-((5-(7,8-dimethyl-[1,2,4]triazolo[1,5-a]pyridin-6-yl)-6-isopropyl-4H-pyrrolo[3,2-d]thiazol-2-yl)methyl)-2-oxa-6-azaspiro[3.3]heptane]
> 50 µM	Cc1cc(-c2[nH]c3sc(C(=O)NCC4(S(C)(=O)=O)CC4)nc3c2C(C)C)cn2ncnc12 [Example 399, 6-isopropyl-5-(8-methyl-[1,2,4]triazolo[1,5-a]pyridin-6-yl)-N-((1-(methylsulfonyl)cyclopropyl)methyl)-4H-pyrrolo[3,2-d]thiazole-2-carboxamide]
> 50 µM	Cc1c(-c2[nH]c3sc(C(=O)NCCCN4CCCC4=O)nc3c2C(C)C)cn2ncnc2c1C [Example 371, 5-(7,8-dimethyl-[1,2,4]triazolo[1,5-a]pyridin-6-yl)-6-isopropyl-N-(3-(2-oxopyrrolidin-1-yl)propyl)-4H-pyrrolo[3,2-d]thiazole-2-carboxamide]
> 50 µM	Cc1c(-c2[nH]c3sc(N4CCN(CC(N)=O)CC4)nc3c2C(C)C)cn2ncnc2c1C [Example 285, 2-(4-(5-(7,8-dimethyl-[1,2,4]triazolo[1,5-a]pyridin-6-yl)-6-isopropyl-4H-pyrrolo[3,2-d]thiazol-2-yl)piperazin-1-yl)acetamide]
> 50 µM	CNC(=O)CN1CCN(c2nc3c(C(C)C)c(-c4cn5ncnc5c(C)c4C)[nH]c3s2)CC1 [Example 284, 2-(4-(5-(7,8-dimethyl-[1,2,4]triazolo[1,5-a]pyridin-6-yl)-6-isopropyl-4H-pyrrolo[3,2-d]thiazol-2-yl)piperazin-1-yl)-N-methylacetamide]
> 50 µM	Cc1cc(-c2[nH]c3sc(N4CCN(C(=O)CN(C)C)C[C@H]4C)nc3c2C(C)C)cn2ncnc12 [Example 360, (R)-2-(dimethylamino)-1-(4-(6-isopropyl-5-(8-methyl-[1,2,4]triazolo[1,5-a]pyridin-6-yl)-4H-pyrrolo[3,2-d]thiazol-2-yl)-3-methylpiperazin-1-yl)ethan-1-one]
> 50 µM	Cc1c(-c2[nH]c3sc(N4CCN(C5COC5)C[C@H]4C)nc3c2C(C)C)cn2ncnc2c1C [Example 316, (R)-5-(7,8-dimethyl-[1,2,4]triazolo[1,5-a]pyridin-6-yl)-6-isopropyl-2-(2-methyl-4-(oxetan-3-yl)piperazin-1-yl)-4H-pyrrolo[3,2-d]thiazole]
> 50 µM	Cc1c(-c2[nH]c3sc(N4CC5(C4)CN(C4COC4)C5)nc3c2C(C)C)cn(C)c(=O)c1C [Example 306, 5-(6-isopropyl-2-(6-(oxetan-3-yl)-2,6-diazaspiro[3.3]heptan-2-yl)-4H-pyrrolo[3,2-d]thiazol-5-yl)-1,3,4-trimethylpyridin-2 (1H)-one]

Second part, the compound before the results:

Compound	IC50
Cc1c(-c2[nH]c3sc(N4CCN(CCS(C)(=O)=O)CC4)nc3c2C(C)C)cn2ncnc2c1C [Example 282, 5-(7,8-dimethyl-[1,2,4]triazolo[1,5-a]pyridin-6-yl)-6-isopropyl-2-(4-(2-(methylsulfonyl)ethyl)piperazin-1-yl)-4H-pyrrolo[3,2-d]thiazole]	> 50 µM
Cc1c(-c2[nH]c3sc(N4CCN(C(=O)C5CCS(=O)(=O)CC5)C[C@@H]4C)nc3c2C(C)C)cn2ncnc2c1C [Example 347, (S)-(4-(5-(7,8-dimethyl-[1,2,4]triazolo[1,5-a]pyridin-6-yl)-6-isopropyl-4H-pyrrolo[3,2-d]thiazol-2-yl)-3-methylpiperazin-1-yl)(1,1-dioxidotetrahydro-2H-thiopyran-4-yl)methanone]	> 50 µM
Cc1c(-c2[nH]c3sc(C4CCN(C5COC5)CC4)nc3c2C(C)C)cn2ncnc2c1C [Example 43, 5-(7,8-dimethyl-[1,2,4]triazolo[1,5-a]pyridin-6-yl)-6-isopropyl-2-(1-(oxetan-3-yl)piperidin-4-yl)-4H-pyrrolo[3,2-d]thiazole]	> 50 µM
COC1CN(C(=O)c2nc3c(C(C)C)c(-c4cc(C)c5ncnn5c4)[nH]c3s2)C1 [Example 396, (6-isopropyl-5-(8-methyl-[1,2,4]triazolo[1,5-a]pyridin-6-yl)-4H-pyrrolo[3,2-d]thiazol-2-yl)(3-methoxyazetidin-1-yl)methanone]	> 50 µM
Cc1c(-c2[nH]c3sc(N4CC5(CN(CC6CCOCC6)C5)C4)nc3c2C(C)C)cn(C)c(=O)c1C [Example 307, 5-(6-isopropyl-2-(6-((tetrahydro-2H-pyran-4-yl)methyl)-2,6-diazaspiro[3.3]heptan-2-yl)-4H-pyrrolo[3,2-d]thiazol-5-yl)-1,3,4-trimethylpyridin-2 (1H)-one]	> 50 µM
Cc1cc(-c2[nH]c3sc(C(N)=O)nc3c2C(C)C)cn2ncnc12 [Example 391, 6-isopropyl-5-(8-methyl-[1,2,4]triazolo[1,5-a]pyridin-6-yl)-4H-pyrrolo[3,2-d]thiazole-2-carboxamide]	> 50 µM
Cc1c(-c2[nH]c3sc(C4CCN(C5COC5)CC4)nc3c2C(C)C)cn(C)c(=O)c1C [Example 60, 5-(6-isopropyl-2-(1-(oxetan-3-yl)piperidin-4-yl)-4H-pyrrolo[3,2-d]thiazol-5-yl)-1,3,4-trimethylpyridin-2 (1H)-one]	> 50 µM
Cc1c(-c2[nH]c3sc(CNCC(N)=O)nc3c2C(C)C)cn2ncnc2c1C [Example 402, 2-(((5-(7,8-dimethyl-[1,2,4]triazolo[1,5-a]pyridin-6-yl)-6-isopropyl-4H-pyrrolo[3,2-d]thiazol-2-yl)methyl)amino)acetamide]	> 50 µM
Cc1c(-c2[nH]c3sc(C4CCN(CC(=O)N(C)C)CC4)nc3c2C(C)C)cn(C)c(=O)c1C [Example 62, 2-(4-(6-isopropyl-5-(1,4,5-trimethyl-6-oxo-1,6-dihydropyridin-3-yl)-4H-pyrrolo[3,2-d]thiazol-2-yl)piperidin-1-yl)-N,N-dimethylacetamide]	> 50 µM
Cc1c(-c2[nH]c3sc(C(=O)N4CCN(S(C)(=O)=O)CC4)nc3c2C(C)C)cn2ncnc2c1C [Example 384, (5-(7,8-dimethyl-[1,2,4]triazolo[1,5-a]pyridin-6-yl)-6-isopropyl-4H-pyrrolo[3,2-d]thiazol-2-yl)(4-(methylsulfonyl)piperazin-1-yl) methanone]	> 50 µM
CC(C)c1c(-c2cn(C)c3ncccc23)[nH]c2sc(C3CCN(C4COC4)CC3)nc12 [Example 34, 6-isopropyl-5-(1-methyl-1H-pyrrolo[2,3-b]pyridin-3-yl)-2-(1-(oxetan-3-yl)piperidin-4-yl)-4H-pyrrolo[3,2-d]thiazole]	> 50 µM
Cc1c(-c2[nH]c3sc(N4CCN(C5COC5)CC4)nc3c2C(C)C)cn2ncnc2c1C [Example 286, 5-(7,8-dimethyl-[1,2,4]triazolo[1,5-a]pyridin-6-yl)-6-isopropyl-2-(4-(oxetan-3-yl)piperazin-1-yl)-4H-pyrrolo[3,2-d]thiazole]	> 50 µM
